According to patent US8742106B2 (Novartis AG, priority 2009, dated 2014):
pKi: −log10 of the molar value.

Legend:
[1] = biological target: human orexin 1 receptors (Homo sapiens (Human), UniProt O43613); assay: Calcium Accumulation in Cells (FLIPR), antagonism of orexin A; type: cell-based; settings: for pKi: antagonism of orexin A, Cheng-Prusoff corrected, read-out: FLIPR hOx1R Ki; for inhibition at 10 µM: measured at a concentration of 10 μM of compound, read-out: FLIPR hOx1R % inhibition value
Chain of human orexin 1 receptors (O43613 whole entry): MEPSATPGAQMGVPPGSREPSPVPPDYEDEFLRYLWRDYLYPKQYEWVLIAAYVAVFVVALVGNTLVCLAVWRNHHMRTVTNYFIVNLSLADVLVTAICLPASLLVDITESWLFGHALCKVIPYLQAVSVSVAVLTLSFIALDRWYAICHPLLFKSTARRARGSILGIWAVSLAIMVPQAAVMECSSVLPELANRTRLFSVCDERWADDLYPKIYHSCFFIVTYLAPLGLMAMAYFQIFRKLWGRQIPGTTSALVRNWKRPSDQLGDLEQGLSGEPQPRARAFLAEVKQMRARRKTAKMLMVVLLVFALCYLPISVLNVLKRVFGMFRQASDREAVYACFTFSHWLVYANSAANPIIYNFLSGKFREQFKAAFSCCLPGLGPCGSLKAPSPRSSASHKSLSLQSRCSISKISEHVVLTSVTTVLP

[2] = biological target: human orexin 2 receptors (Homo sapiens (Human), UniProt O43614); assay: as above; type: cell-based; settings: for pKi: antagonism of orexin A, Cheng-Prusoff corrected, read-out: FLIPR hOx2R Ki; for inhibition at 10 µM: measured at a concentration of 10 μM of compound, read-out: FLIPR hOx2R % inhibition value
Chain of human orexin 2 receptors (O43614 whole entry): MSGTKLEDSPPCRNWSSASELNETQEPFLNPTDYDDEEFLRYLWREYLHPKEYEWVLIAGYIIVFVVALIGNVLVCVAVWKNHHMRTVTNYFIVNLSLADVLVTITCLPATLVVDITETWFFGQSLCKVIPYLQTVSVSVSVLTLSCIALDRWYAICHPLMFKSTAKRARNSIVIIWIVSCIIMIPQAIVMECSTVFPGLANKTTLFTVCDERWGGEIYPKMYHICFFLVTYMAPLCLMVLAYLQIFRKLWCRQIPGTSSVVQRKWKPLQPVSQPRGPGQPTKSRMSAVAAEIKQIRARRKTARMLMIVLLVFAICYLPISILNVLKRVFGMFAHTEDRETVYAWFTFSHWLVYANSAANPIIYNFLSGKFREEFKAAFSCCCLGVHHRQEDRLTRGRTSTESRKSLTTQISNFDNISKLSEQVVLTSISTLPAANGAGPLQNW
In short: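 Cells expressing human orexin 2 receptor, loaded with Fluo4-AM (2 μM) plus probenecid (0.1 mM) for 1 h, then washed. Antagonism read as inhibition of the orexin A calcium fluorescence signal (FLIPR).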

Structure (SMILES): Cc1ccc(C(C)NC(=O)COc2cc(C(F)(F)F)c3c(C4CC4)nn(C)c3n2)cn1 (stereo not drawn) [Example 6.16, 2-(3-cyclopropyl-1-methyl-4-(trifluoromethyl)-1H-pyrazolo[3,4-b]pyridin-6-yloxy)-N-(1-(6-methylpyridin-3-yl)ethyl)acetamide]
- pKi [1]: 5.80
- pKi [2]: 6.73

Structure (SMILES): Cc1ccc(C(C)NC(=O)COc2cc(C(F)F)c3c(-c4ccccc4)nn(C)c3n2)cn1 (stereo not drawn) [Example 6.18, 2-(4-(difluoromethyl)-1-methyl-3-phenyl-1H-pyrazolo[3,4-b]pyridin-6-yloxy)-N-(1-(6-methylpyridin-3-yl)ethyl)acetamide]
- pKi [1]: 6.27
- pKi [2]: 7.01

Structure (SMILES): Cc1ccc(C(C)NC(=O)COc2cc(C(F)F)c3c(C4CC4)nn(C)c3n2)cn1 (stereo not drawn) [Example 6.19, 2-(3-cyclopropyl-4-(difluoromethyl)-1-methyl-1H-pyrazolo[3,4-b]pyridin-6-yloxy)-N-(1-(6-methylpyridin-3-yl)ethyl)acetamide]
- inhibition at 10 µM [1]: 41%
- pKi [2]: 6.10

Structure (SMILES): Cc1ccc([C@H](C)NC(=O)COc2ccc3c(C4CC4)nn(C)c3n2)cc1 [Example 6.23, (S)-2-(3-cyclopropyl-1-methyl-1H-pyrazolo[3,4-b]pyridin-6-yloxy)-N-(1-p-tolylethyl)acetamide]
- pKi [1]: 5.96
- pKi [2]: 6.63

Structure (SMILES): COc1ccc([C@H](C)NC(=O)COc2cc(C)c3c(C(C)C)nn(C)c3n2)cc1 [Example 6.27, (S)-2-(3-isopropyl-1,4-dimethyl-1H-pyrazolo[3,4-b]pyridin-6-yloxy)-N-(1-(4-methoxyphenyl)ethyl)acetamide]
- pKi [1]: 6.38
- pKi [2]: 6.98

Structure (SMILES): COc1ccc(C(C)NC(=O)COc2cc(C)c3c(C(C)C)nn(C)c3n2)cn1 (stereo not drawn) [Example 6.28, 2-(3-isopropyl-1,4-dimethyl-1H-pyrazolo[3,4-b]pyridin-6-yloxy)-N-(1-(6-methoxypyridin-3-yl)ethyl)acetamide]
- inhibition at 10 µM [1]: 39%
- pKi [2]: 5.92

Structure (SMILES): Cc1nn(C)c(C)c1C(C)NC(=O)COc1cc(C)c2c(C(C)C)nn(C)c2n1 (stereo not drawn) [Example 6.29, 2-(3-isopropyl-1,4-dimethyl-1H-pyrazolo[3,4-b]pyridin-6-yloxy)-N-(1-(1,3,5-trimethyl-1H-pyrazol-4-yl)ethyl)acetamide]
- inhibition at 10 µM [1]: 36%
- inhibition at 10 µM [2]: 34%

Structure (SMILES): COc1ccc(C(C)NC(=O)COc2cc(C)c3c(-c4cc(C)oc4C)nn(C)c3n2)cn1 (stereo not drawn) [Example 6.32, 2-(3-(2,5-dimethylfuran-3-yl)-1,4-dimethyl-1H-pyrazolo[3,4-b]pyridin-6-yloxy)-N-(1-(6-methoxypyridin-3-yl)ethyl)acetamide]
- pKi [1]: 6.07
- pKi [2]: 6.02

Structure (SMILES): Cc1ccc([C@H](C)NC(=O)COc2ccc3c(-c4ccccc4C)nn(C)c3n2)cc1 [Example 6.35, (S)-2-(1-methyl-3-o-tolyl-1H-pyrazolo[3,4-b]pyridin-6-yloxy)-N-(1-p-tolylethyl)acetamide]
- pKi [1]: 6.59
- pKi [2]: 6.90

Structure (SMILES): Cc1cc(OCC(=O)NC2CCc3cc(F)ccc32)nc2c1c(C1CC1)nn2C (stereo not drawn) [Example 6.40, 2-(3-cyclopropyl-1,4-dimethyl-1H-pyrazolo[3,4-b]pyridin-6-yloxy)-N-(5-fluoro-2,3-dihydro-1H-inden-1-yl)acetamide]
- inhibition at 10 µM [1]: 21%
- pKi [2]: 6.23

Structure (SMILES): Cc1cc(OCC(=O)NCC(C)C)nc2c1c(C1CC1)nn2C [Example 6.45, 2-(3-cyclopropyl-1,4-dimethyl-1H-pyrazolo[3,4-b]pyridin-6-yloxy)-N-isobutylacetamide]
- inhibition at 10 µM [1]: 20%
- inhibition at 10 µM [2]: 19%

Structure (SMILES): Cc1cc(OCC(=O)NC2CCCC2)nc2c1c(C1CC1)nn2C [Example 6.46, N-cyclopentyl-2-(3-cyclopropyl-1,4-dimethyl-1H-pyrazolo[3,4-b]pyridin-6-yloxy)acetamide]
- inhibition at 10 µM [1]: 16%
- inhibition at 10 µM [2]: 26%

Structure (SMILES): COc1ccc(C(C)NC(=O)COc2cc(C)c3c(C4CC4)nn(C)c3n2)cn1 (stereo not drawn) [Example 6.47, 2-(3-cyclopropyl-1,4-dimethyl-1H-pyrazolo[3,4-b]pyridin-6-yloxy)-N-(1-(6-methoxypyridin-3-yl)ethyl)acetamide]
- pKi [1]: 5.83
- pKi [2]: 6.13

Structure (SMILES): Cc1cc(OCC(=O)NC(C)c2cc(CC(C)(C)C)on2)nc2c1c(C1CC1)nn2C (stereo not drawn) [Example 6.48, 2-(3-cyclopropyl-1,4-dimethyl-1H-pyrazolo[3,4-b]pyridin-6-yloxy)-N-(1-(5-neopentylisoxazol-3-yl)ethyl)acetamide]
- inhibition at 10 µM [1]: < 10%
- inhibition at 10 µM [2]: < 10%

Structure (SMILES): Cc1cc(OCC(=O)NCCc2ccccc2)nc2c1c(C1CC1)nn2C [Example 6.49, 2-(3-cyclopropyl-1,4-dimethyl-1H-pyrazolo[3,4-b]pyridin-6-yloxy)-N-phenethylacetamide]
- inhibition at 10 µM [1]: 21%
- pKi [2]: 6.21

Structure (SMILES): Cc1cc(OCC(=O)NCCCc2ccccc2)nc2c1c(C1CC1)nn2C [Example 6.50, 2-(3-cyclopropyl-1,4-dimethyl-1H-pyrazolo[3,4-b]pyridin-6-yloxy)-N-(3-phenylpropyl)acetamide]
- inhibition at 10 µM [1]: 10%
- inhibition at 10 µM [2]: 42%

Structure (SMILES): COc1ccc([C@H](C)N(C)C(=O)COc2cc(C)c3c(C4CC4)nn(C)c3n2)cc1 [Example 6.51]
- inhibition at 10 µM [1]: 26%
- pKi [2]: 6.24

Structure (SMILES): CNC(=O)COc1cc(C)c2c(C3CC3)nn(C)c2n1 [Example 6.52]
- inhibition at 10 µM [1]: < 10%
- inhibition at 10 µM [2]: < 10%

Structure (SMILES): Cc1cc(OCC(=O)NC(C)C2CC2)nc2c1c(C1CC1)nn2C (stereo not drawn) [Example 6.53]
- inhibition at 10 µM [1]: 17%
- inhibition at 10 µM [2]: 38%

Structure (SMILES): CCn1ccc(C(C)NC(=O)COc2cc(C)c3c(C4CC4)nn(C)c3n2)n1 (stereo not drawn) [Example 6.54]
- inhibition at 10 µM [1]: 44%
- inhibition at 10 µM [2]: 29%

Structure (SMILES): Cc1ccc(C(C)NC(=O)COc2cc(C)c3c(C4CC4)nn(C)c3n2)cn1 (stereo not drawn) [Example 6.55]
- inhibition at 10 µM [1]: 53%
- pKi [2]: 6.28

Structure (SMILES): Cc1cc(OCC(=O)N[C@@H](C)C2CCCC2)nc2c1c(C1CC1)nn2C [Example 6.56, (S)-N-(1-cyclopentylethyl)-2-(3-cyclopropyl-1,4-dimethyl-1H-pyrazolo[3,4-b]pyridin-6-yloxy)acetamide]
- inhibition at 10 µM [1]: < 10%
- inhibition at 10 µM [2]: < 10%

Structure (SMILES): Cc1cc(OCC(=O)NC(C)c2ccc3c(c2)ncn3C)nc2c1c(C1CC1)nn2C (stereo not drawn) [Example 6.58, 2-(3-cyclopropyl-1,4-dimethyl-1H-pyrazolo[3,4-b]pyridin-6-yloxy)-N-(1-(1-methyl-1H-benzo[d]imidazol-5-yl)ethyl)acetamide]
- pKi [1]: 6.00
- pKi [2]: 6.42

Structure (SMILES): Cc1ccc([C@H](C)NC(=O)COc2nc3c(cc2C)c(C2CC2)nn3C)cc1 [Example 6.60, (S)-2-(3-cyclopropyl-1,5-dimethyl-1H-pyrazolo[3,4-b]pyridin-6-yloxy)-N-(1-p-tolylethyl)acetamide]
- inhibition at 10 µM [1]: 11%
- pKi [2]: 5.93

Structure (SMILES): COc1ccc(C(C)(C)NC(=O)COc2cc(C)c3c(C4CC4)nn(C)c3n2)cc1 [Example 6.62, 2-(3-cyclopropyl-1,4-dimethyl-1H-pyrazolo[3,4-b]pyridin-6-yloxy)-N-(2-(4-methoxyphenyl)propan-2-yl)acetamide]
- pKi [1]: 6.20
- pKi [2]: 6.80

Structure (SMILES): Cc1cc2c(cn1)[C@@H](NC(=O)COc1cc(C)c3c(C4CC4)nn(C)c3n1)CC2 [Example 6.64, (S)-2-(3-cyclopropyl-1,4-dimethyl-1H-pyrazolo[3,4-b]pyridin-6-yloxy)-N-(3-methyl-6,7-dihydro-5H-cyclopenta[c]pyridin-7-yl)acetamide]
- pKi [1]: 6.11
- pKi [2]: 7.03

Structure (SMILES): Cc1cnc2c(c1)CC[C@@H]2NC(=O)COc1cc(C)c2c(C3CC3)nn(C)c2n1 [Example 6.65, (S)-2-(3-cyclopropyl-1,4-dimethyl-1H-pyrazolo[3,4-b]pyridin-6-yloxy)-N-(3-methyl-6,7-dihydro-5H-cyclopenta[b]pyridin-7-yl)acetamide]
- inhibition at 10 µM [1]: < 10%
- pKi [2]: 6.08

Structure (SMILES): Cc1ccc(CNC(=O)COc2cc(C)c3c(C4CC4)nn(C)c3n2)cc1 [Example 6.66, 2-(3-cyclopropyl-1,4-dimethyl-1H-pyrazolo[3,4-b]pyridin-6-yloxy)-N-(4-methylbenzyl)acetamide]
- pKi [1]: 5.41
- pKi [2]: 5.88

Structure (SMILES): COc1ccc(CNC(=O)COc2cc(C)c3c(C4CC4)nn(C)c3n2)cc1 [Example 6.67, 2-(3-cyclopropyl-1,4-dimethyl-1H-pyrazolo[3,4-b]pyridin-6-yloxy)-N-(4-methoxybenzyl)acetamide]
- inhibition at 10 µM [1]: 29%
- inhibition at 10 µM [2]: 40%

Structure (SMILES): Cc1cc(OCC(=O)N[C@H]2CCc3cc(OC(C)C)ccc32)nc2c1c(C1CC1)nn2C [Example 6.69, (S)-2-(3-cyclopropyl-1,4-dimethyl-1H-pyrazolo[3,4-b]pyridin-6-yloxy)-N-(5-isopropoxy-2,3-dihydro-1H-inden-1-yl)acetamide]
- pKi [1]: 6.90
- inhibition at 10 µM [2]: 31%

Structure (SMILES): COc1ccc([C@H](C)NC(=O)C(C)Oc2cc(C)c3c(C4CC4)nn(C)c3n2)cc1 (stereo partly drawn) [Example 6.70, 2-(3-cyclopropyl-1,4-dimethyl-1H-pyrazolo[3,4-b]pyridin-6-yloxy)-N-((S)-1-(4-methoxyphenyl)ethyl)propanamide]
- pKi [1]: 5.97
- pKi [2]: 5.97

Structure (SMILES): COc1ccc([C@H](C)NC(=O)COc2nc3c(c(C4CC4)nn3C)c(C)c2C)cc1 [Example 6.74, (S)-2-(3-cyclopropyl-1,4,5-trimethyl-1H-pyrazolo[3,4-b]pyridin-6-yloxy)-N-(1-(4-methoxyphenyl)ethyl)acetamide]
- inhibition at 10 µM [1]: 23%
- inhibition at 10 µM [2]: 38%

Structure (SMILES): Cc1ccc([C@H](C)NC(=O)COc2nc3c(c(C4CC4)nn3C)c(C)c2C)cc1 [Example 6.75, (S)-2-(3-cyclopropyl-1,4,5-trimethyl-1H-pyrazolo[3,4-b]pyridin-6-yloxy)-N-(1-p-tolylethyl)acetamide]
- pKi [1]: 5.76
- pKi [2]: 6.25
